Target: OTR (Rattus norvegicus (Rat), UniProt P70536)
Experiment: Oxytocin-induced rat uterine contraction model
Format: in vivo
Conditions: female SD rats, 1 μg/kg OT i.v.
Method: The efficacy of OTR inhibitors (compound 2-10mpk, compound 2-30mpk and compound 2-100mpk) on oxytocin (OT)-induced rat uterine contraction model was evaluated by establishing a rat uterine contraction model.
Compound 2-100mpk: 221.0 mg of compound 2 was weighed, added with 5.40 ml of Cremophor RH40, 2.16 ml of Masine 35-1, 3.24 ml of polyethylene glycol 400 (PEG400) and 1.20 ml of ethanol respectively, and mixed well by ultrasonic vibration;
Compound 2-30mpk: 54.2 mg of compound 2 was weighed, added with 4.50 ml of Cremophor RH40, 1.80 ml of Masine 35-1, 2.70 ml of polyethylene glycol 400 (PEG400) and 1.00 ml of ethanol respectively, and mixed well by ultrasonic vibration;
Compound 2-10mpk: 1 ml of compound 2-100mpk solution was added with 9 ml of solvent (45% of Cremophor RH40, 18% of Masine 35-1, 27% of PEG400 and 10% of ethanol), and mixed well. […]
After completion of the experiment, the area under curve (AUC) of the uterine contraction pressure 5 minutes before and after the administration of the inducing agent was calculated respectively. The efficacy of the test compound was evaluated by calculating the ratio of the difference value in AUC before and after induction to the AUC before induction, and comparing with the difference value of the ratio after administration of the test compound. ΔAUC ratio=(AUC0−AUCT)/AUC0; […]

Chain of OTR (P70536 whole entry): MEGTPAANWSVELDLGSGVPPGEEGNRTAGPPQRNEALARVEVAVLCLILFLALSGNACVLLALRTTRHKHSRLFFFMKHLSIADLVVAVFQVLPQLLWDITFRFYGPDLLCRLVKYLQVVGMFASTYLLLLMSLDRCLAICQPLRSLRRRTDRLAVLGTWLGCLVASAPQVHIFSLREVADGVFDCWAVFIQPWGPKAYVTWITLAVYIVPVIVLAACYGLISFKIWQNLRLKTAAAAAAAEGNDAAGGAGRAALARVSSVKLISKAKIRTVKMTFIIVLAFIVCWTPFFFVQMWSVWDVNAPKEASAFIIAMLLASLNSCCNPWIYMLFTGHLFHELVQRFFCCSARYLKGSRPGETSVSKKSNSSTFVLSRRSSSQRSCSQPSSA

## COCc1nnc(N2CC(c3cccc4cc(F)ccc34)C2)n1-c1ccc(OC)nc1 [Example 2, 5-(3-(3-(6-Fluoronaphthalen-1-yl)azetidin-1-yl)-5-(methoxymethyl)-4H-1,2,4-triazol-4-yl)-2-methoxypyridine]
30mpk p.o.
  Efficacy on OT-induced uterine contraction vs solvent control group: can effectively block the downstream function (uterine contraction) of oxytocin receptors mediated by oxytocin
100mpk p.o.
  Efficacy on OT-induced uterine contraction vs solvent control group: can effectively block the downstream function (uterine contraction) of oxytocin receptors mediated by oxytocin

From patent US10889569B2, “Condensed ring group azacyclobutyl triazole derivative, preparation method therefor and use thereof in medicine” (Jiangsu Hengrui Medicine Co., Ltd., priority 2016, dated 2021)
